These results are taken from patent EP0472573B1, “HERBICIDE RESISTANT MAIZE” (ZENECA LIMITED, priority 1989, dated 1990).

One assay deals with Mutant 9 plants. As to the kind of experiment: Cross-resistance testing (glasshouse dose response), Mutant 9. In kind it is in vivo, Zea mays. Particulars: pre-emergence spray, assessed after four weeks growth. An excerpt: (§1) The seeds used in this screen were populations of mixed tolerant and sensitive seed, segregating 1:1, derived from each of the heterogygous, tolerant mutants crossed with homozygous, sensitive UE95. All of the tolerant progeny are heterozygous for tolerance. Each of the mutants identified above were used except mutant 4. The controls were seed of self-pollinated UE95 which was pollinated in the same year as the tolerant lines.
(§2) One litre of compost was placed in each seed tray of dimensions 19cm x 11cm x 5cm deep and firmed down flat. Two furrows 1 cm deep were drawn in the surface of the compost in each tray and six seeds were sown in each furrow (total twelve seeds per tray). Some trays were sown with 24 seeds, in which case three furrows were made and 8 seeds sown per furrow.
(§3) In each test each tray contained either the seed of one mutant or of the UE95 control for each herbicide application rate and for the untreated control.
(§4) Five different types of ALS-inhibitor herbicides were tested on the mutants plus imazethapyr (PURSUIT) as a comparison. Four rates of each were applied; approximately 0.1x, 0.5x, 1x and 4x the estimated field rates for each herbicide. The rates are the same for mutant 3 to 10 but higher rates for chlorimuron (CLASSIC) and lower rates for chlorsulfuron (GLEAN) were applied to mutants 1 and 2.
(§5) The rates of application used in the screening tests were as follows: chlorimuron (CLASSIC) 4,20,40,160 g/Ha (mutants 1 and 2); and, 8,40,80,320 g/Ha (mutants 3 to 10); chlorsulfuron (GLEAN) 5,25,50,200 g/Ha (mutants 1 and 2); and, 1,5,10,40 g/Ha (mutants 3 to 10); imazaquin (SCEPTER) 30,150,300,1200 g/Ha; triazolopyrimidine 5,25,50,200 g/Ha; phenoxypyrimidine 10,50,100,400 g/Ha; and, imazethapyr (PURSUIT) 30,150,300,1200 g/Ha The triazolopyrimidine and phenoxypyrimidine were formulated in an adjuvant wetting agent known as JF5969 and diluted with water to make a final concentration of 10% JF5969. The remaining compounds were diluted with water only.
(§6) The spray jet and parameters were as decribed above under "SCREENING". After spraying, the seeds were covered with 0.5 litre of compost and firmed down flat (2.5cm covering) and grown under the conditions described under "SCREENING" above.
(§7) Visual assessments were made of the plants after four weeks growth. Each plant was scored on a scale of zero to 5 and the height measured from soil surface to the tallest leaf tip. The scoring scale was as follows: 0 - 0 to 10% damage (little or no herbicidal effect) 1 - 11 to 25% damage 2 - 26 to 50% damage 3 - 51 to […] 4 - 81 to 95% damage 5 - 96 to 100% damage (complete death of the plant) In carrying out these assessments, plants which were obviously of the sensitive phenotype were ignored (approximately 50% of the plants). […]

A further assay relates to Mutant 2 plants. As to the kind of experiment: Cross-resistance testing (glasshouse dose response), Mutant 2. In kind it is in vivo, Zea mays. To be noted: pre-emergence spray, assessed after four weeks growth.
Excerpt: as §1, §2, §3, §4, §5, §6, §7

For the next assay, the system named is Mutant 10 plants. As to the kind of experiment: Cross-resistance testing (glasshouse dose response), Mutant 10. The class given is in vivo, Zea mays. To be noted: pre-emergence spray, assessed after four weeks growth.
Excerpt: as §1, §2, §3, §4, §5, §6, §7

Assay [1] deals with ALS enzyme extracted from Mutant 3 (heterozygous). The assay can be described thus: ALS enzyme assay, heterozygous Mutant 3. In kind it is biochemical, Zea mays. Particulars: for IC50: ALS of heterozygous Mutant 3, read-out: ID50% (the source's name); for resistance group, Enzyme Assay: Mutant 3, groups Strong, Intermediate, Weak, Zero; for Fold Increase: fold increase in resistance vs wild type, heterozygous Mutant 3, 30 min. As to the method:
Seeds of generation M₁BC₁ M₁BC₂ of the nine mutants were sprayed pre-emergence with the herbicide imazethapyr (PURSUIT) (Trade Mark) at a rate of 250 g/ha and grown in a growth chamber (16 hour day, 27°C; 8 hour night, 17°C). Plants were harvested after 11 days.
(§8) Four grams of leaf material were harvested from just above the first leaf axis and ground in a mortar and pestle in 20ml of a solution containing 40mM Tricine (Trade Mark), 10mM EDTA, 5mM pyruvate, 80 »M flavin adenine dinucleotide (FAD), 1mM dithiothreitol (DTT), pH 8, plus 0.8g Polyclar AT. The homogenate was pressed through four layers of muslin and centrifuged at 30,000g for 20 minutes.
(§9) The supernatant was brought to 65% saturation with ammonium sulphate, left to precipitate for 30 minutes and then centrifuged at 30.000g for 20 minutes. The pellet was resuspended in 2.5ml of 40mM Tricine, 10mM EDTA, 5mM pyruvate, 80»M FAD, 25% (v/v) glycerol, 1mM DTT, pH 8, and desalted into 3.5ml of 40mM Tricine, 10mM EDTA, 25% (v/v) glycerol, 1mM DTT, pH 8.
(§10) One hundred microlitres of the enzyme extract was used for each assay. Final reagent concentrations were: 120mM Tricine, 50mM pyruvate, 10mM MgCl₂, […], 93»M thiamine pyrophosphate (TPP), pH 8, in the presence or absence of a herbicide of interest, in a volume of 750 »l. Incubations were carried out at 37°C for 30 minutes. Reactions were stopped with 250»l of 1.84M sulphuric acid, and decarboxylation of the acetolactate carried out at 37°C for 75 minutes, or at 60°C for 30 minutes. Assay blanks had sulphuric acid added prior to the enzyme extract. To the samples and blanks 650»l of α-naphthol in 2.73M NaOH/0.16%(w/v) creatine were added followed by incubation at 37°C for 30 minutes. After centrifugation at 30,000g the optical density of the supernatant was read at 540nm.
(§11) The assay procedure described was carried out on ALS enzyme extracted from each of the nine mutants for the following herbicides: imazethapyr (PURSUIT) imazapyr (ARSENAL) imazaquin (SCEPTER) chlorsulfuron (GLEAN) chlorimuron (CLASSIC) […] (HARMONY) The enzyme activity graphs are given as Figures 3 to 8. In addition, homozygous lines of mutants 1 and 2 which were selected from generation M₁BC₁S₂, were also tested against the same group of herbicides and against representatives of the triazolopyrimidines and phenoxypyrimidines. The chemical structures of these herbicides are shown in Figure 2 of the accompanying drawings.
(§12) From the enzyme assay data it is possible to derive, as a measure of the degree of inhibition the factor ID50% for each mutant and for each herbicide. This factor is indicative of the herbicide concentration which gives 50% inhibition of the ALS activity in comparison with the wild-type control. It is also possible to derive the fold increase in resistance.

A further assay has as its system Mutant 8 plants. The assay can be described thus: Cross-resistance testing (glasshouse dose response), Mutant 8. The class given is in vivo, Zea mays. Particulars: pre-emergence spray, assessed after four weeks growth.
Excerpt: as §1, §2, §3, §4, §5, §6, §7

In a further assay the test system is Mutant 7 plants. As to the kind of experiment: Cross-resistance testing (glasshouse dose response), Mutant 7. Particulars: pre-emergence spray, assessed after four weeks growth. The class given is in vivo, Zea mays.
Excerpt: as §1, §2, §3, §4, §5, §6, §7

Another assay relates to Mutant 5 plants. The assay can be described thus: Cross-resistance testing (glasshouse dose response), Mutant 5. In kind it is in vivo, Zea mays. Particulars: pre-emergence spray, assessed after four weeks growth.
Excerpt: as §1, §2, §3, §4, §5, §6, §7

For a further assay, the system named is Mutant 6 plants. The assay can be described thus: Cross-resistance testing (glasshouse dose response), Mutant 6. In kind it is in vivo, Zea mays. Particulars: pre-emergence spray, assessed after four weeks growth.
Excerpt: as §1, §2, §3, §4, §5, §6, §7

In assay [2] the target is ALS extracted from leaves of MUTANT 2 (homozygous). As to the kind of experiment: ALS enzyme assay, homozygous Mutant 2. In kind it is biochemical, Zea mays. To be noted: for IC50: ALS of homozygous Mutant 2, read-out: ID50% Mutant; for Fold Increase: fold increase in resistance vs wild type, homozygous Mutant 2, 30 min. As to the method: as §8, §9, §10, §11, §12

As for `CC(C)C1(C)N=C(c2nc3ccccc3cc2C(=O)O)NC1=O` (stereo not drawn) [Imazaquin, imazaquin], the “resistance group, Dose Response” value in the assay with Mutant 9 plants is given as “Strong”; with Mutant 2 plants, “Strong”; with Mutant 10 plants, “Weak”; in the assay with Mutant 8 plants, “Strong”; in the assay with Mutant 7 plants it was “Zero”; in the assay on Mutant 5 plants it was “Intermediate”. Besides, the “resistance group, Dose Response” value in the assay on Mutant 6 plants is listed as “Weak”. Besides, the IC50 in assay [1] stood at 1500 nM; in [2], 40000 nM. In addition, the “resistance group, Enzyme Assay” value in [1] was “Weak”. For the same compound, the entries for the “Fold Increase” value in assay [1] and in assay [2] were 2 and 66, respectively.
For the compound `COc1cc(Cl)nc(NC(=O)NS(=O)(=O)c2ccccc2C(=O)O)n1` [Chlorimuron, chlorimuron], the “resistance group, Dose Response” value in the assay with Mutant 9 plants is on record as “Zero”; with Mutant 2 plants, “Zero”; in the assay with Mutant 10 plants, “Weak”; with Mutant 8 plants, “Zero”; in the assay on Mutant 7 plants it was “Zero”; in the assay with Mutant 5 plants, “Zero”. The “resistance group, Dose Response” value with Mutant 6 plants is listed as “Zero”. For the same compound, the IC50 is 15 nM in assay [1] and 20 nM in assay [2]. In assay [1], the “resistance group, Enzyme Assay” value is recorded as “Weak”. The “Fold Increase” value amounted to 4 in assay [1] and 5.4 in assay [2].
`CCc1cnc(C2=NC(=O)C(C)(C(C)C)N2)c(C(=O)O)c1` (stereo not drawn) [Imazethapyr, 5-ethyl-2-(5-iso-propyl-5-methyl-4-oxo-2-imidazolin-2-yl) nicotinic acid]: the “resistance group, Dose Response” value is given as “Strong” in the assay with Mutant 9 plants; “Intermediate” with Mutant 2 plants; “Intermediate” in the assay with Mutant 10 plants; “Strong” in the assay on Mutant 8 plants; “Weak” with Mutant 7 plants; “Strong” with Mutant 5 plants. The “resistance group, Dose Response” value with Mutant 6 plants is recorded as “Intermediate”. For the same compound, the IC50 in assay [1] worked out at 2500 nM; in assay [2], 400000 nM. For the same compound, the “resistance group, Enzyme Assay” value in [1] is “Weak”. The “Fold Increase” value amounted to 2 in assay [1] and 267 in [2].
Regarding `COc1nc(C)nc(NC(=O)NS(=O)(=O)c2ccccc2Cl)n1` [Chlorsulfuron, chlorsulfuron], the “resistance group, Dose Response” value in the assay on Mutant 9 plants was “Weak and Zero”; in the assay on Mutant 2 plants, “Zero”; with Mutant 10 plants, “Weak and Zero”; with Mutant 8 plants it was “Zero”; in the assay with Mutant 7 plants, “Weak”; in the assay on Mutant 5 plants it was “Weak”. Besides, the “resistance group, Dose Response” value in the assay on Mutant 6 plants is listed as “Zero”. In addition, the IC50 came out at 35 nM in assay [1] and 40 nM in assay [2]. For the same compound, in [1], the “resistance group, Enzyme Assay” value is “Weak”. The entries for the “Fold Increase” value in assay [1] and in [2] were 2 and 2.2, respectively.
